Results from BindingDB's records for doi:10.1021/acs.jmedchem.5b00801 (Duquesne University, 2015).

Assays:
[1] = Binding affinity to human RFC expressed in Chinese hamster PC43-10 cells assessed as cell growth inhibition after 96 hrs by CellTiter-Blue assay
[2] = Binding affinity to human PCFT expressed in Chinese hamster R2/PCFT4 cells assessed as cell growth inhibition after 96 hrs by CellTiter-Blue assay
[3] = Binding affinity to human FRbeta expressed in Chinese hamster D4 cells assessed as cell growth inhibition after 96 hrs by CellTiter-Blue assay
[4] = Binding affinity to human FRbeta expressed in Chinese hamster D4 cells assessed as cell growth inhibition after 96 hrs by CellTiter-Blue assay in presence of 200 nM folic acid
[5] = Binding affinity to human FRalpha expressed in Chinese hamster RT16 cells assessed as cell growth inhibition after 96 hrs by CellTiter-Blue assay
[6] = Binding affinity to human FRalpha expressed in Chinese hamster RT16 cells assessed as cell growth inhibition after 96 hrs by CellTiter-Blue assay in presence of 200 nM folic acid

Structure (SMILES) | IC50 [1] | IC50 [2] | IC50 [3] | IC50 [4] | IC50 [5] | IC50 [6]
Nc1nc2[nH]c(CCCc3cc(C(=O)N[C@@H](CCC(=O)O)C(=O)O)cs3)cc2c(=O)[nH]1 | 189 nM | 6.5 nM | 0.1 nM | 654 nM | 0.61 nM | 506 nM
Nc1nc(N)c2c(CCCc3cc(C(=O)N[C@@H](CCC(=O)O)C(=O)O)cs3)coc2n1 | > 1000 nM | > 1000 nM | 54 nM | > 1000 nM | – | –
